Consider ten molecules from patent US20090182014A1, “INSECTICIDAL COMPOSITIONS COMPRISING COMPOUNDS HAVING INHIBITORY ACTIVITY VERSUS ACYL COA: CHOLESTEROL ACYLTRANSFERASE OR SALTS THEREOF AS EFFECTIVE INGREDIENTS” (priority 2003, published 2009).

In brackets after ≈: the same amount, converted by molar mass.

The test system of experiment [1] is acyl CoA:cholesterol acyltransferase (ACAT). Nature of the experiment: Assay for ACAT inhibitory activity using hepatic microsomes, cholesterol and 14C-labeled oleoyl-CoA. The format is biochemical. How it is done: In the method, ACAT activity was determined using hepatic microsomes as a source of ACAT with substrates of cholesterol and ^14C-labeled oleoyl-CoA. The radioactivity of the reaction product cholesterol ester was estimated as the ACAT activity.
In detail, a reaction mixture was prepared as follows. […] To stabilize enzyme reaction, bovine serum albumin was added to the mixture to a final concentration of 30 μM. Then, a sample dissolved in DMSO or methanol was added to the mixture. The resulting reaction mixture was preincubated at 37° C. for 30 min. The enzyme reaction was then initiated by adding [1-^14C]-oleoyl Coenzyme A solution to a final concentration of 0.04 μCi. After 30 min of incubation at 37° C., the reaction was stopped by addition of 1 ml of an isopropanol-heptane solution. Then, 0.6 ml of n-heptane and 0.4 ml of KPB buffer were added to the terminated reaction mixture. The mixture was well mixed and allowed to stand at room temperature for 2 min. After phase separation, 200 μl of the supernatant was put into a scintillation vial. After adding 4 ml of a scintillation cocktail (Lipoluma, Lumac Co.) to the vial, the amount of synthesized cholesteryl oleate was measured with a scintillation counter (Packard Delta-200). The inhibitory activity versus ACAT was calculated according to the following Equation 1:
Inhibitory activity (%)=[1−(T−B/C−B)]×100
T: cpm in a test reaction mixture that contains a compound of the present invention along with an enzyme source;

Experiment [2] deals with Tenebrio molitor L larvae. Nature of the experiment: Diet (wheat bran) assay against Tenebrio molitor L larvae: larval weight, growth, killing. Type of experiment: in vivo. The note with it: 1 mg mixed with 10 g wheat bran; for larval weight-reducing effect in T. molitor L larvae (FIG. 8): larval weight on day 3 and 7, compared with control. How it is done:
Among the present compounds with an ACAT inhibitory activity, the phenylpyropene A, B and C (Formulas 2 to 4) were tested for weight-reducing effect in larval insects. In this test, larvae of Tenebrio molitor L. was used as an experimental insect, which was obtained from the insect research lab, KRIBB, Korea. Healthy second-instar larvae (10-12 mm) of Tenebrio molitor L was selected 24 hrs before performing this test. Each of the compounds of Formulas 2 to 4 was dissolved in 10% acetone to a final concentration of 1 mg/ml and serially diluted. 1 ml of the diluted compound solution was mixed with […] of wheat bran commonly used as a diet. The resulting mixture was put into a glass petri dish (90×20 mm), and the petri dish was placed in a desiccator for about 2 hrs under pressure to remove the organic solvent. After being weighed, 10 highly mobile larvae of T. molitor L for each test set were placed in a petri dish (87×15 mm) with a filter paper disk, together with the mixture of the present compound and wheat bran. Then, the larvae were grown in at 25±±1° C. under 40-45% relative humidity with a 16-hour light/8-hours dark cycle. After 72 hrs, larval weight and diet intake were recorded every three days. This assay was performed on three replicates, and a control group was treated with 10% acetone.

In experiment [3] the test system is Plutella xylostella L larvae. Nature of the experiment: Leaf-disk bioassay against Plutella xylostella L larvae. The format is in vivo. The note with it: treated with 0.001 to 1 mg; investigated at intervals of 24 hrs; compared with control. How it is done: Larvae of Plutella xylostella L was used as an experimental insect in this test, which was obtained from the Insect Research Lab, Korean Research Institute of Bioscience and Biotechnology (KRIBB), Oun-dong, Yusong-ku, Taejon, Korea. After being weighed accurately, a proper amount of the present compounds with an ACAT inhibitory activity were was dissolved in acetone, mixed with nine volumes of a 100 ppm Triton X-100 stock solution, and serially diluted, thus giving active compound solutions. A diet for the growth of the P. xylostella L larvae was prepared, as follows: leaves of cabbages with uniform growth were cut into leaf disks (3.0 cm in diameter), dipped in the active compound solutions for 30 sec, and dried in a hood for 60 min. Each of the active compound-treated leaf disks was put in a petri dish (55×20 mm) with a filter paper disk. Then, 10 second-instar larvae of P. xylostella L were placed on each leaf disc using a soft brush with caution not to damage the larvae, and grown in an incubator (25±1° C., 40-45% relative humidity, 16L:8D). After 24 hrs and 48 hrs, mortality was recorded. […] This leaf-disk bioassay was performed on three replicates, and LC50 (50% lethal concentration) was calculated by the Probit method developed by Finney (1982).

The mark [4] stands for this setting: calculated from the μg/ml value and molecular weight.
The mark [5] stands for this setting: hepatic microsomes as source of ACAT.

Turning to `Cc1cc(Cc2cc(C)cc(C(C)(C)C)c2O)c(O)c(C(C)(C)C)c1` [Formula 9], the results for the ACAT inhibitory activity in experiment [1] (concentration 20 μg/ml) and in experiment [1] (concentration 100 μg/ml) were 93.4% and 98.4%, respectively.

On to `CC(C)c1cccc(C(C)C)c1OC(=O)NS(=O)(=O)Oc1c(C(C)C)cccc1C(C)C` [Formula 8], for which the ACAT inhibitory activity in experiment [1] (concentration 20 μg/ml) came to 84.5%; in experiment [1] (concentration 100 μg/ml), 93.8%.

Take `CCCCCCCC/C=C\CCCCCCCC(=O)Nc1c(OC)cc(OC)cc1OC` [Formula 7]: the results for the ACAT inhibitory activity in experiment [1] (concentration 20 μg/ml) and in experiment [1] (concentration 100 μg/ml) were 96.6% and 97.8%, respectively.

For `CC(=O)OC1CC[C@@]2(C)C(CC[C@@]3(C)Oc4cc(-c5ccccc5)oc(=O)c4CC23)C1(C)C` (stereo partly shown) [phenylpyropene C], the IC50 in experiment [1] (setting [4]) is 16 µM. The “IC50 (ACAT activity)” value in experiment [1] (setting [5]) is 7.2 µg/mL (≈ 16 µM). For the same molecule, in experiment [2], the “larval growth inhibition in T. molitor L larvae (FIG. 9)” value (“larval growth inhibition” below) is on record as “larval growth inhibition was found” and the “larval weight-reducing effect in T. molitor L larvae (FIG. 8)” value (shortened to “larval weight-reducing effect”) is recorded as “lasting larval weight-reducing effect”.

For `CC(=O)OC[C@@]1(C)[C@@H]2C[C@H](OC(C)=O)[C@@]3(C)Oc4cc(-c5cccnc5)oc(=O)c4[C@H](O)[C@@H]3[C@@]2(C)CC[C@@H]1OC(C)=O` [pyripyropene A], in experiment [2], the “T. molitor L insect killed in the larval and pupa stages” value is “most of the T. molitor L insect was killed in the larval and pupa stages”; the “larval growth inhibition” value is listed as “larval growth inhibition was found”. Also, the “insecticidal effect against P. xylostella L larvae (FIG. 6)” value in experiment [3] is on record as “lasting insecticidal effect in a dose-dependant manner”.

For the molecule pheophorbide a, in experiment [2], the “larval growth inhibition” value is given as “larval growth inhibition was found”.

Turning to `CC(=O)OCC1(C)C(OC(C)=O)CC[C@@]2(C)C1CC[C@@]1(C)Oc3cc(-c4ccccc4)oc(=O)c3CC21` (stereo partly shown) [phenylpyropene B], the half-maximal inhibitory concentration (IC50) in experiment [1] (setting [4]) was 12.8 µM. Also, the “IC50 (ACAT activity)” value in experiment [1] (setting [5]) came out at 6.5 µg/mL (≈ 12.8 µM). Also, in experiment [2], the “larval weight-reducing effect” value is recorded as “lasting larval weight-reducing effect”.

`O=C(/C=C/C=C/c1ccc2c(c1)OCO2)N1CCCCC1` [Formula 10]: the results for the ACAT inhibitory activity in experiment [1] (concentration 20 μg/ml) and in experiment [1] (concentration 100 μg/ml) were 17.6% and 82.0%, respectively.

Regarding `CC(=O)OCC1(C)C2C[C@H](OC(C)=O)[C@@]3(C)Oc4cc(-c5ccccc5)oc(=O)c4[C@H](O)C3[C@@]2(C)CC[C@@H]1OC(C)=O` (stereo partly shown) [phenylpyropene A], the IC50 in experiment [1] (calculated from the ng/ml value and molecular weight) is 0.086 µM. Also, the “IC50 (compound concentration to inhibit by 50% of ACAT activity)” value in experiment [1] (setting [5]) came out at 0.5 µg/mL. Besides, in experiment [2], the “larval growth inhibition” value is recorded as “larval growth inhibition was found” and the “larval weight-reducing effect” value is given as “lasting larval weight-reducing effect”.

As to `CCCCCCCNC(=O)CCCCSC1NC(c2ccccc2)C(c2ccccc2)N1` (stereo not shown) [Formula 11], the ACAT inhibitory activity in experiment [1] (concentration 20 μg/ml) worked out at 84.8%; in experiment [1] (concentration 100 μg/ml) it was 89.6%.

One may read the IC50 as the point on the concentration scale where inhibition reaches its midpoint.
